The text below walks through data of ChEMBL document CHEMBL1158235, “Dendroamides, new cyclic hexapeptides from a blue-green alga. Multidrug-resistance reversing activity of dendroamide A” (J Nat Prod, 1996).

What all share (type): cell-based
In data set [1] the test system is MCF7/VP. The data set can be described thus: Inhibition of MRP expressed in human MCF7/VP cells assessed as increase in cisplatin-induced cytotoxicity.
For data set [2], the system named is MCF7/VP. Description: Inhibition of MRP expressed in human MCF7/VP cells assessed as increase in etoposide-induced cytotoxicity.
For data set [3], the system named is MCF7/VP. The data set can be described thus: Inhibition of MRP expressing human MCF7/VP cells assessed as increase in vincristine-induced cytotoxicity at 5 to 10 uM after 48 hrs by SRB binding assay. For orientation: The SRB assay estimates cell density from bound dye.
The test system of data set [4] is MCF7/VP. Description: Inhibition of MRP expressed in human MCF7/VP cells assessed as increase in doxorubicin-induced cytotoxicity.
Data set [5] addresses T1, ATP-dependent translocase ABCB1 (Homo sapiens, UniProt P08183). Description: Inhibition of p-glycoprotein expressing human MCF7 cells assessed as [3H]vinblastine accumulation.
Data set [6] has as its system NCI/ADR-RES. Description: Displacement of [3H]azidopine from p-glycoprotein expressed in human MCF7/ADR cells assessed as photoaffinity labeling reduction at 0.5 uM. Also on record: scale not given: the % may be the effect or the level left. In general terms: In a radioligand displacement assay an active substance lowers the binding of a labelled ligand.
Data set [7] has as its target T1, ATP-dependent translocase ABCB1. The data set can be described thus: Inhibition of p-glycoprotein expressing human MCF7/ADR cells assessed as cell killing after 48 hrs by SRB binding assay in presence of 4 uM cisplatin. The conditions noted are these: nci/adr-res.
Data set [8] shares this target. Description: Inhibition of p-glycoprotein expressing human MCF7/ADR cells assessed as cell killing after 48 hrs by SRB binding assay in presence of 15M daunomycin. The conditions noted are these: nci/adr-res.
For data set [9] the target is unchanged. The data set can be described thus: Inhibition of p-glycoprotein expressing human MCF7/ADR cells assessed as cell killing after 48 hrs by SRB binding assay in presence of 200 uM actinomycin D. Particulars: nci/adr-res.
For data set [10] the target is unchanged. The data set can be described thus: Inhibition of p-glycoprotein expressing human MCF7/ADR cells assessed as increase in vinblastine sensitivity to cell killing at 0.6 uM after 48 hrs by SRB assay. The conditions noted are these: nci/adr-res.
Data set [11] has the same target. Description: Inhibition of p-glycoprotein expressing human MCF7/ADR cells assessed as [3H]vinblastine accumulation treated at 20 uM measured after 60 mins. The conditions noted are these: nci/adr-res, 1 h.
For data set [12] the target is unchanged. The data set can be described thus: Inhibition of p-glycoprotein expressing human MCF7/ADR cells assessed as [3H]vinblastine accumulation treated at 5 uM measured after 60 mins. Particulars: nci/adr-res, 1 h.
The test system of data set [13] is NCI/ADR-RES. The data set can be described thus: Displacement of [3H]azidopine from p-glycoprotein expressed in human MCF7/ADR cells assessed as photoaffinity labeling reduction at 10 uM. Also noted: scale not given: the % may be the effect or the level left.
In data set [14] the test system is MCF7/VP. The data set can be described thus: Inhibition of MRP expressed in human MCF7/VP cells assessed as increase in vincristine-induced cytotoxicity at 20 uM after 48 hrs by SRB binding assay.

Active and inactive are the calls of the source. The rule behind the calls is not given here.

T1 sequence (P08183 whole entry): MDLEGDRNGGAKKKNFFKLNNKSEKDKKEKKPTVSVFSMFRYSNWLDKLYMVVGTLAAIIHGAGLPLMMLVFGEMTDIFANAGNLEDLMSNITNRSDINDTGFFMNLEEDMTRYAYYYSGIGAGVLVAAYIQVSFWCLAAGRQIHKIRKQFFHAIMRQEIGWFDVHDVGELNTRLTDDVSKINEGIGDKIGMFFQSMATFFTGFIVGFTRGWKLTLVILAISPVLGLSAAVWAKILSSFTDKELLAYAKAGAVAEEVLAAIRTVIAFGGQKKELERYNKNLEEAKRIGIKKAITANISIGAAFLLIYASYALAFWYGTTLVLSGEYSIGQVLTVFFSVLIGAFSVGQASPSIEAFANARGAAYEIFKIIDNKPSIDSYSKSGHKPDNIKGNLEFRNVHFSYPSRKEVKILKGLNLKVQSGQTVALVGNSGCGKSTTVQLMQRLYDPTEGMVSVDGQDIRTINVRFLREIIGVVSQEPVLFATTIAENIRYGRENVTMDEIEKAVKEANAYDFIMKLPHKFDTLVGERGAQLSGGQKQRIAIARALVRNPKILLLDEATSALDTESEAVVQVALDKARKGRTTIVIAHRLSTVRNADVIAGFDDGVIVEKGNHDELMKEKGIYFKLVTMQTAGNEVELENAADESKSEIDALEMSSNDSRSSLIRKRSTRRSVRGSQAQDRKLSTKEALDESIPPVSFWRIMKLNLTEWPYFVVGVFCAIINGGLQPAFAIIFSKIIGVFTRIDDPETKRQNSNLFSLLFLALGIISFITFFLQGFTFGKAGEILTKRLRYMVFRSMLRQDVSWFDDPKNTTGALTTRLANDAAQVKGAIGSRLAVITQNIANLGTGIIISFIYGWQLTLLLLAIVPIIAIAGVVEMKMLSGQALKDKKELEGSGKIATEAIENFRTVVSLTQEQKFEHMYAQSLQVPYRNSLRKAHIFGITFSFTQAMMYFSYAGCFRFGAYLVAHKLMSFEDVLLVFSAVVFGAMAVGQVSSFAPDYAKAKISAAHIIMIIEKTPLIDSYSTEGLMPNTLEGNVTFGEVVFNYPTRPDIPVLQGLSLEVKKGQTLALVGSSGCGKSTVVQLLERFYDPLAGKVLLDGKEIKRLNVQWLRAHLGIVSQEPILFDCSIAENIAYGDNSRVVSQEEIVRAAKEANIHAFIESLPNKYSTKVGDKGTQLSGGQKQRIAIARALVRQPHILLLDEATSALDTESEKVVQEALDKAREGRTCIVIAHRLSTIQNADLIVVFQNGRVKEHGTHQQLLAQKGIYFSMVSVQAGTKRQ

Regarding `Cc1oc2nc1C(=O)N[C@H](C(C)C)c1nc(cs1)C(=O)N[C@H](C)c1nc(cs1)C(=O)N[C@@H]2C` [DENDROAMIDE A], the result in the data set with MCF7/VP [1] was inactive. For the same compound, the outcome in the data set on MCF7/VP [2], with MCF7/VP [3] and in the data set on MCF7/VP [4] was Active. Moreover, the Activity entry is “Not Active” in data set [5]; 50% in the data set with NCI/ADR-RES [6]; “Not Active” in [7]; “Active” in [8]; “Active” in data set [9]; “Active” in data set [10].
Turning to `CSCC[C@H]1NC(=O)c2csc(n2)[C@@H](C)NC(=O)c2nc(oc2C)[C@@H](C)NC(=O)c2csc1n2` [DENDROAMIDE B], the Activity entry in data set [11], in data set [12], in data set [5], in [7], in [8] and in data set [9] was “Not Active” in each case. In data set [10], the Activity result is listed as “Not Active”. Moreover, the outcome with NCI/ADR-RES [13] and with NCI/ADR-RES [6] was inactive.
As to `Cc1oc2nc1C(=O)N[C@H](C)c1nc(cs1)C(=O)N[C@H](CC[S+](C)[O-])c1nc(cs1)C(=O)N[C@@H]2C` (stereo partly specified) [DENDROAMIDE C], the Activity result in [11], in data set [12], in data set [5], in [7], in [8] and in data set [9] was “Not Active” throughout. Besides, the Activity entry in data set [10] is given as “Not Active”. For the same compound, the result in the data set with NCI/ADR-RES [13] and in the data set on NCI/ADR-RES [6] was inactive.
Take `COc1ccc(CCN(C)CCCC(C#N)(c2ccc(OC)c(OC)c2)C(C)C)cc1OC` (stereo unspecified) [VERAPAMIL]: the Activity with NCI/ADR-RES [13] was 50%; in data set [5], “Not Active”. For the same compound, the result in the data set on MCF7/VP [14] was Active.
